Test results from publication PMC12141164, “Phase-1 study of vamotinib (PF-114), a 3rd generation BCR::ABL1 tyrosine kinase-inhibitor, in chronic myeloid leukaemia” (Annals of Hematology, 2025).
Values joined by “and” are separate entries in the source; they are usually repeats but may differ in a detail not shown here. Equal entries are not always repeated.

Tested on: BCR::ABL1 positive CML
Test: Phase-1 study: haematological, cytogenetic and molecular response
Type: in vivo, human
Protocol: Haematological response evaluations were done on the first day of each cycle of therapy; molecular response on the first day of cycles 1, 2, 4, 7, 10, 13 and then every three months; cytogenetic response – at screening and on the first days of cycles 4, 7, 13 and every three months thereafter, provided that there was no major molecular response.
Cytogenetic response was assessed by differential staining of chromosomes and if uninformative, by fluorescent in situ hybridization (FISH). Mutations in BCR::ABL1 were assessed by Sanger and next generation sequencing (NGS). Sanger sequencing was done at each center; NGS analyses were done in the laboratory of Prof. Susan Branford, University of Adelaide. Discordances were resolved as described in Table S2. Molecular response was assessed using the ratio of BCR::ABL1 to ABL1 measured according to the IS [9].

## Cc1ccc(C(=O)Nc2ccc(CN3CCN(C)CC3)c(C(F)(F)F)c2)cc1C#Cc1nnc2ccccn12 [vamotinib]
Advanced phase CML (N = 5)
  CCyR: none and 0/5
  MCyR: none and 0/5
  MMR: 0/5
BCR::ABL1^T315I
  subjects with BCR::ABL1^T315I who responded: 5 of 16 subjects
Cohort 1 50 mg N=3
  CCyR achieved at treatment: 0 no. (%)
  CCyR by 6 months: 0 no. (%)
  CCyR by 12 months: 0 no. (%)
  CHR achieved at treatment: 1 (50) no. (%)
  CHR by the 3 months: 0 no. (%)
  CHR by the 6th months: 0 no. (%)
  CHR by the 12th months: 1 (50) no. (%)
  MCyR achieved at treatment: 0 no. (%)
  MCyR by 6 months: 0 no. (%)
  MCyR by 12 months: 0 no. (%)
  MMR achieved at treatment: 0 no. (%)
  MMR by 6 months: 0 no. (%)
  MMR by 12 months: 0 no. (%)
  MMR by 24 months: 0 no. (%)
  Subjects with loss of CCyR: 0 no. (%)
  Subjects with loss of CHR: 0 no. (%)
  Subjects with loss of MCyR: 0 no. (%)
  Subjects with loss of MMR: 0 no. (%)
Cohort 2 100 mg N=3
  CCyR achieved at treatment: 1 (33) no. (%)
  CCyR by 6 months: 0 no. (%)
  CCyR by 12 months: 0 no. (%)
  CHR achieved at treatment: 0 no. (%)
  CHR by the 3 months: 0 no. (%)
  CHR by the 6th months: 0 no. (%)
  CHR by the 12th months: 0 no. (%)
  MCyR by 6 months: 1 (33) no. (%)
  MCyR by 12 months: 1 (33) no. (%)
  MMR achieved at treatment: 1 (33) no. (%)
  MMR by 6 months: 0 no. (%)
  MMR by 12 months: 0 no. (%)
  MMR by 24 months: 1 (33) no. (%)
  Subjects with loss of CCyR: 0 no. (%)
  Subjects with loss of CHR: 0 no. (%)
  Subjects with loss of MCyR: 0 no. (%)
  Subjects with loss of MMR: 0 no. (%)
Cohort 3 200 mg N=11
  CCyR achieved at treatment: 3 (30) no. (%)
  CCyR by 6 months: 2 (20) no. (%)
  CCyR by 12 months: 2 (20) no. (%)
  CHR achieved at treatment: 2 (40) no. (%)
  CHR by the 3 months: 2 (40) no. (%)
  CHR by the 6th months: 2 (40) no. (%)
  CHR by the 12th months: 2 (40) no. (%)
  MCyR achieved at treatment: 4 (50) no. (%)
  MCyR by 6 months: 3 (38) no. (%)
  MCyR by 12 months: 3 (38) no. (%)
  MMR achieved at treatment: 2 (18) no. (%)
  MMR by 6 months: 1 (9) no. (%)
  MMR by 12 months: 1 (9) no. (%)
  MMR by 24 months: 2 (18) no. (%)
  Subjects with loss of CCyR: 1 (33) no. (%)
  Subjects with loss of CHR: 2 (100) no. (%)
  Subjects with loss of MCyR: 1 (25) no. (%)
  Subjects with loss of MMR: 0 no. (%)
Cohort 4 400 mg N=12
  CCyR achieved at treatment: 1 (8) no. (%)
  CCyR by 6 months: 1 (8) no. (%)
  CCyR by 12 months: 1 (8) no. (%)
  CHR achieved at treatment: 4 (57) no. (%)
  CHR by the 3 months: 2 (29) no. (%)
  CHR by the 6th months: 2 (29) no. (%)
  CHR by the 12th months: 4 (57) no. (%)
  MCyR achieved at treatment: 2 (19) no. (%)
  MCyR by 6 months: 2 (19) no. (%)
  MCyR by 12 months: 2 (19) no. (%)
  MMR achieved at treatment: 0 no. (%)
  MMR by 6 months: 0 no. (%)
  MMR by 12 months: 0 no. (%)
  MMR by 24 months: 0 no. (%)
  Subjects with loss of CCyR: 0 no. (%)
  Subjects with loss of CHR: 4 (100) no. (%)
  Subjects with loss of MCyR: 0 no. (%)
  Subjects with loss of MMR: 0 no. (%)
Cohort 5 500 mg N=3
  CCyR achieved at treatment: 0 no. (%)
  CCyR by 6 months: 0 no. (%)
  CCyR by 12 months: 0 no. (%)
  CHR achieved at treatment: 0 no. (%)
  CHR by the 3 months: 0 no. (%)
  CHR by the 6th months: 0 no. (%)
  CHR by the 12th months: 0 no. (%)
  MCyR achieved at treatment: 0 no. (%)
  MCyR by 6 months: 0 no. (%)
  MCyR by 12 months: 0 no. (%)
  MMR achieved at treatment: 0 no. (%)
  MMR by 6 months: 0 no. (%)
  MMR by 12 months: 0 no. (%)
  MMR by 24 months: 0 no. (%)
  Subjects with loss of CCyR: 0 no. (%)
  Subjects with loss of CHR: 0 no. (%)
